Test results from publication PMC3465485 (Antiviral research, 2012).
Read-outs that look alike come from different tables or passages of the source.

Legend:
[1] = test system: influenza A/California/07/2009 (H1N1) virus
[2] = test system: influenza A/California/07/2009 (H1N1) virus; experiment: microbe, parasite or virus in culture; conditions: H1N1, MDCK
in vitro = conditions: dog
[3] = biological target: A/California/07/2009 neuraminidase (Influenza A virus (A/California/07/2009(H1N1)), UniProt C3W6G3); assay type: biochemical
[4] = 100 mg/kg/day; no reference given; cited from earlier work

With `CC(N)C12CC3CC(CC(C3)C1)C2` (stereo not drawn) [Rimantadine] the “SI (CC50/EC50)” value [1] was 0, the “antiviral activity in cell culture (in words)” value [1] was “no antiviral effect” and the EC50 [2] was greater than 22 µM. For the same compound, the CC50 (in vitro) was 22 ± 1 µM.

For `CCC(CC)O[C@@H]1C=C(C(=O)O)C[C@H](N)[C@H]1NC(C)=O` [Oseltamivir Carboxylate, Oseltamivir carboxylate], the EC50 [1] was 0.06 ± 0.1 µM, the CC50 (in vitro) was greater than 100 µM and the “neuraminidase inhibition (in words)” value [3] was “slightly less potent than the other two compounds”.

`CC(=O)N[C@H]1[C@H]([C@H](O)[C@H](O)CO)OC(C(=O)O)=C[C@@H]1N=C(N)N` [Zanamivir] gave an EC50 [1] of 0.08 ± 0.07 µM and a CC50 (in vitro) greater than 100 µM.

For `NC12CC3CC(CC(C3)C1)C2` [Amantadine], the “antiviral activity in cell culture (in words)” value [1] was “no antiviral effect”, the EC50 [2] was greater than 100 µM and the CC50 (in vitro) was greater than 100 µM.

For `NC(=O)c1ncn([C@@H]2O[C@H](CO)[C@@H](O)[C@H]2O)n1` [Ribavirin], the “toxicity in mice (in words)” value [4] is listed as “begins to cause toxicity” and the EC50 [2] is listed as 28 ± 11 µM.

With Peramivir the EC50 [1] was 0.04 ± 0.07 µM, the “SI (CC50/EC50)” value [1] was greater than 2500 and the CC50 (MDCK cells) was greater than 100 µM. It also gave an IC50 [3] of 0.0029 ± 0.0006 µM.
